Test results as given in patent US10676429B2, “Sulfamoyl-arylamides and the use thereof as medicaments for the treatment of hepatitis B” (priority 2012, dated 2020).

What was measured:
[1] = system: HBV; test: Anti-HBV activity in HepG2.117 cell line (Tet-off, intracellular HBV DNA, realtime PCR); format: cell-based; conditions: Hepatitis B virus, HepG2.117, 72 h
[2] = Cytotoxicity in HepG2 cells, 4 days, Resazurin assay; conditions: human, HepG2 cells
[3] = system: HBV; test: Anti-HBV activity in stable transfected HepG2.2.15 cell line (HBV DNA from secreted virions, realtime PCR); format: cell-based; conditions: Hepatitis B virus, HepG2.2.15, 144 h
[4] = HepG2.117 cells, 3 days of treatment, intracellular HBV DNA, read-out: HepG2 117 EC50
[5] = HepG2.2.15 cells, 6 days of treatment, secreted virion HBV DNA, read-out: HepG2 2.15 EC50

Compound | EC50 [1, 4] | CC50 at 4 days [2] | EC50 [3, 5] | EC50 ([1]; read-out: HepG2 117 EC50 (μM)) | EC50 ([3]; read-out: HepG2 2.15 EC50 (μM))
Cc1cc(NC(=O)c2cccc(S(=O)(=O)NC(C)CCc3ccccc3)c2)ccc1F (stereo not drawn) [Compound 153] | 0.25 µM | > 25 µM | 0.22 µM | – | –
Cc1cc(NC(=O)c2cccc(S(=O)(=O)NC3CCCN(C(=O)OC(C)(C)C)C3)c2)ccc1F (stereo not drawn) [Compound 155] | 0.81 µM | > 25 µM | 0.36 µM | – | –
Cc1cc(NC(=O)c2cccc(S(=O)(=O)NC3CCN(C(=O)OC(C)(C)C)C3)c2)ccc1F (stereo not drawn) [Compound 156] | 0.21 µM | > 25 µM | 0.19 µM | – | –
COC(=O)N1CC(C)(NS(=O)(=O)c2cccc(C(=O)Nc3ccc(F)c(C)c3)c2)C1 [Compound 157] | 0.23 µM | > 25 µM | 0.13 µM | – | –
COC(=O)N1CCC(NS(=O)(=O)c2cccc(C(=O)Nc3ccc(F)c(C)c3)c2)C1 (stereo not drawn) [Compound 158] | 0.5 µM | > 25 µM | 0.15 µM | – | –
CC1(NS(=O)(=O)c2cccc(C(=O)Nc3ccc(F)c(Br)c3)c2)COC1 [Compound 160, N-(3-bromo-4-fluoro-phenyl)-3-[(3-methyloxetan-3-yl)sulfamoyl]benzamide] | 0.69 µM | > 25 µM | 0.2 µM | – | –
Cc1cc(NC(=O)c2cccc(S(=O)(=O)NC(C)c3ccncc3)c2)ccc1F (stereo not drawn) [Compound 161] | 0.35 µM | > 25 µM | 0.2 µM | – | –
Cc1cc(NC(=O)c2cccc(S(=O)(=O)NC(C)c3cccnc3)c2)ccc1F (stereo not drawn) [Compound 162] | 1.26 µM | > 25 µM | 0.17 µM | – | –
Cc1cc(NC(=O)c2cccc(S(=O)(=O)NC(C)c3ccccn3)c2)ccc1F (stereo not drawn) [Compound 163] | 8.53 µM | > 25 µM | 0.53 µM | – | –
Cc1cc(NC(=O)c2cccc(S(=O)(=O)NC(C)C3CCN(C)CC3)c2)ccc1F (stereo not drawn) [Compound 164] | 0.97 µM | > 25 µM | 3.71 µM | – | –
Cc1cc(NC(=O)c2cccc(S(=O)(=O)NC(C)CCN3CCOCC3)c2)ccc1F (stereo not drawn) [Compound 165] | 0.36 µM | > 25 µM | 0.71 µM | – | –
Cc1cc(NC(=O)c2cccc(S(=O)(=O)N[C@H](C)c3ccccc3)c2)ccc1F [Compound 166] | 2.39 µM | 14.6 µM | 0.19 µM | – | –
Cc1cc(NC(=O)c2cccc(S(=O)(=O)N[C@@H](C)c3ccccc3)c2)ccc1F [Compound 167] | 9.84 µM | > 25 µM | 0.62 µM | – | –
Cc1cc(NC(=O)c2cccc(S(=O)(=O)NC3Cc4ccccc4C3)c2)ccc1F [Compound 168] | 0.37 µM | 11.8 µM | 0.27 µM | – | –
Cc1cc(NC(=O)c2cccc(S(=O)(=O)NC(C)Cc3ccccc3)c2)ccc1F (stereo not drawn) [Compound 169] | – | 14.9 µM | – | 1.41 µM | 0.24 µM
Cc1cc(NC(=O)c2cccc(S(=O)(=O)NCCC3CC3)c2)ccc1F [Compound 170] | 0.45 µM | > 25 µM | 0.26 µM | – | –
Cc1cc(NC(=O)c2cccc(S(=O)(=O)NC3COCC3O)c2)ccc1F (stereo not drawn) [Compound 171] | 4.39 µM | > 25 µM | 0.79 µM | – | –
Cc1cc(NC(=O)c2cccc(S(=O)(=O)N[C@@H]3CCC[C@@H]3O)c2)ccc1F [Compound 172] | 0.61 µM | > 25 µM | 0.26 µM | – | –
Cc1cc(NC(=O)c2cccc(S(=O)(=O)N[C@@H]3CCC[C@H]3O)c2)ccc1F [Compound 173] | 0.36 µM | > 25 µM | 0.37 µM | – | –
Cc1cc(NC(=O)c2cccc(S(=O)(=O)N[C@@H](C)C3CC3)c2)ccc1F [Compound 174] | 2.84 µM | > 25 µM | 0.47 µM | – | –

Compound | EC50 [1, 4] | CC50 at 4 days [2] | EC50 [3, 5] | EC50 ([1]; read-out: HepG2 117 EC50 (μM)) | EC50 ([3]; read-out: HepG2 2.15 EC50 (μM))
Cc1cc(NC(=O)c2cccc(S(=O)(=O)N[C@@H]3c4ccccc4C[C@H]3O)c2)ccc1F [Compound 175] | 0.15 µM | > 25 µM | 0.23 µM | – | –
Cc1cc(NC(=O)c2cccc(S(=O)(=O)N[C@H]3c4ccccc4C[C@@H]3O)c2)ccc1F [Compound 176] | 0.56 µM | > 25 µM | 0.62 µM | – | –
Cc1cc(NC(=O)c2cccc(S(=O)(=O)N[C@H]3c4ccccc4C[C@H]3O)c2)ccc1F [Compound 177] | 0.72 µM | > 25 µM | 0.77 µM | – | –
Cc1cc(NC(=O)c2cccc(S(=O)(=O)N[C@@H]3CCc4ccccc4[C@H]3O)c2)ccc1F [Compound 178] | 2.54 µM | > 25 µM | 0.75 µM | – | –
Cc1cc(NC(=O)c2cccc(S(=O)(=O)NC3CCC(=O)N(C)C3)c2)ccc1F (stereo not drawn) [Compound 180] | 1.3 µM | > 25 µM | 0.76 µM | – | –
Cc1cc(NC(=O)c2cccc(S(=O)(=O)NC3CCN(C)C3=O)c2)ccc1F (stereo not drawn) [Compound 181] | 2.04 µM | > 25 µM | 2.59 µM | – | –
Cc1cc(NC(=O)c2cccc(S(=O)(=O)NC3CN(C(=O)OC(C)(C)C)C3)c2)ccc1F [Compound 182] | 0.88 µM | > 25 µM | 0.31 µM | – | –
Cc1cc(NC(=O)c2cccc(S(=O)(=O)NC3(C(F)(F)F)CC3)c2)ccc1F [Compound 183] | 0.84 µM | > 25 µM | 0.08 µM | – | –
Cc1cc(NC(=O)c2cccc(S(=O)(=O)NC3CC(O)C3)c2)ccc1F (stereo not drawn) [Compound 184] | 0.4 µM | > 25 µM | 0.15 µM | – | –
Cc1cc(NC(=O)c2cccc(S(=O)(=O)N[C@H]3C[C@H](O)C3)c2)ccc1F [Compound 184a] | 0.77 µM | > 25 µM | 0.31 µM | – | –
Cc1cc(NC(=O)c2cccc(S(=O)(=O)N[C@H]3C[C@@H](O)C3)c2)ccc1F [Compound 184b] | 0.33 µM | > 25 µM | 0.3 µM | – | –
COC(=O)N1CC(NS(=O)(=O)c2cccc(C(=O)Nc3ccc(F)c(C)c3)c2)C1 [Compound 185] | 0.62 µM | > 25 µM | 0.22 µM | – | –
Cc1cc(NC(=O)c2cccc(S(=O)(=O)NC(C)C)c2)cc(C)c1F [Compound 186] | 1.34 µM | > 25 µM | 0.2 µM | – | –
Cc1ccc(S(=O)(=O)NC2(C)COC2)c(F)c1C(=O)Nc1ccc(F)c(C#N)c1 [Compound 191] | 0.36 µM | > 25 µM | 0.33 µM | – | –
Cc1ccc(S(=O)(=O)NC2(C)COC2)c(F)c1C(=O)Nc1ccc(F)c(F)c1 [Compound 194] | 0.31 µM | > 25 µM | 0.38 µM | – | –
Cc1ccc(S(=O)(=O)NC2(C)COC2)c(F)c1C(=O)Nc1ccc(F)c(Cl)c1 [Compound 195] | 0.18 µM | > 25 µM | 0.27 µM | – | –
O=C(Nc1ccc(F)c(F)c1)c1c(F)ccc(S(=O)(=O)N[C@H]2CCOC2)c1F [Compound 196] | 0.07 µM | > 25 µM | 0.13 µM | – | –
O=C(Nc1ccc(F)c(Cl)c1)c1c(F)ccc(S(=O)(=O)N[C@H]2CCOC2)c1F [Compound 201] | 0.06 µM | > 25 µM | 0.06 µM | – | –
CC1(NS(=O)(=O)c2cc(Cl)cc(C(=O)Nc3ccc(F)c(C(F)F)c3)c2F)COC1 [Compound 217] | 0.6 µM | > 25 µM | 0.2 µM | – | –
CC1(NS(=O)(=O)c2cccc(C(=O)Nc3ccc(F)c(C(F)F)c3)c2F)COC1 [Compound 218] | 0.1 µM | > 25 µM | 0.12 µM | – | –
